Tests used:
AGS cells (KRAS G12D) = experiment: Cell viability assay (Cell Counting Kit-8, 3-day); format: cell-based, human; conditions: Homo sapiens, 72 h, 72 hrs incubation
Protocol: (§1) The purpose of this cellular assay was to determine the effects of test compounds on the proliferation of human cancer cell lines NCI-H358 (ATCC-CRL5807) cells, AGS (ATCC-CRL-1739) cells, SW620 (ATCC-CCL-227) over a 3-day treatment period by quantifying the amount of NADPH present at endpoint using Cell Counting Kit-8.
(§2) Cells were seeded at 5,000 cells/well (NCI-H358), 2,000 cells/well (AGS) 2,000 cells/well (SW620) in 96-well assay plates (Corning-3699) and incubated overnight. On the day of the assay, diluted compounds were then added in a final concentration of 0.5% DMSO. After 72 hrs incubation, a tenth of the volume of cell counting kit 8 (Dnjindo-CK04) was added into each well. Read the signal (OD450 minus OD650) using EnVision after 2 hrs incubation. IC50 was determined by fitting a 4-parameter sigmoidal concentration response model.

[1] = test system: NCI-H358 cells (KRAS G12C); experiment: Cell viability assay (Cell Counting Kit-8, 3-day); format: cell-based, human; conditions: Homo sapiens, NCI-H358, 72 h, NCI-H358, 72 hrs incubation
Protocol: as §1, §2

SW620 cells (KRAS G12V) = experiment: Cell viability assay (Cell Counting Kit-8, 3-day); format: cell-based, human; conditions: Homo sapiens, SW-620; SW620, 72 hrs incubation
Protocol: as §1, §2

KRAS G12C-BRAF complex = KRAS G12C-BRAF complex (Homo sapiens (Human), UniProt P01116+P62937, G12C); experiment: KRAS-BRAF with CYPA (500 nM) interaction assay (TR-FRET, Example 136); format: biochemical; conditions: KRAS G12C-BRAF disruption
Protocol: In this example, TR-FRET was also used to measure the compound or compound-CYPA dependent disruption of the KRAS G12C-BRAF complex. This protocol was also used to measure disruption of KRAS G12D or KRAS G12V binding to BRAF by a compound of the invention, respectively. In assay buffer containing 25 mM HEPES PH=7.4 (4-(2-hydroxyethyl)-1-piperazineethanesulfonic acid, Thermo, 15630080), 0.002% Tween20, 0.1% BSA, 100 mM NaCl, 5 mM MgCl2, 10 μM GMPPNP (Guanosine 5′-[β,γ-imido]triphosphate trisodium salt hydrate, Sigma, G0635), […] 384-well assay plate at final concentrations of 50 nM, 6.25 nM and 1 nM, respectively. Compound was present in plate wells as a 16-point 3-fold dilution series starting at a final concentration of 10 μM and incubated for 3 hours. A mixture of MAb Anti-6His-XL665 (Cisbio, 61HISXLB) and Mab anti-GST-TB cryptate (Cisbio, 61GSTTLB) was then added at a final concentration of 6.67 nM and 0.21 nM, respectively, and the plate was incubated for an additional 1.5 hours. TR-FRET signal was read on a PHERstar FSX microplate reader (Ex320 nm, Em 665/615 nm). Compounds that facilitate disruption of the KRAS-BRAF complex were identified as those eliciting a decrease in the TR-FRET ratio relative to DMSO control wells.

[2] = test system: phosphorylation of ERK, KRAS G12C in NCI-H358 cells; experiment: pERK inhibition assay; format: cell-based; conditions: Homo sapiens, NCI-H358, 4 h
Protocol: (§3) This assay is to measure the ability of test compounds in inhibiting the phosphorylation of ERK, the downstream signaling of KRAS G12C in NCI-H358 cells, KRAS G12D in AGS cells, and KRAS G12V in SW620. NCI-H358 (ATCC-CRL5807) cells, AGS (ATCC-CRL-1739) cells, SW620 (ATCC-CCL-227) cells were all grown and maintained using RPMI-1640 medium (Thermo Fisher Scientific) with 10% fetal bovine serum and 1% penicillin/streptomycin. On the day prior to compound addition, cells were plated in tissue culture-treated 96 well plates (Corning-3699) at a density of 30,000 cell/well, 20,000 cell/well, 30,000 cell/well for NCI-H358, AGS and SW620 respectively, and allowed for attachment overnight. Diluted compounds were then added in a final concentration of 0.5% DMSO. After 4 hours of incubation, the medium was removed, 100 μL of 4% formaldehyde was added, and the assay plates were incubated at room temperature for 20 minutes. The plates were then washed once with phosphate buffered saline (PBS), and permeabilized with 100 μL of chilled methanol for 10 minutes. Non-specific antibody binding to the plates was blocked using 50 μL 1X BSA blocking buffer (Thermo-37520, 10-fold dilution by Phosphate-Buffered Saline Tween (PBST) for at least 1 hour at room temperature.
(§4) The amount of phosphor-ERK was determined using an antibody specific for phosphorylated form of ERK. Primary antibody (PERK, CST-4370, Cell Signaling Technology) was diluted 1:300 in blocking buffer, with 50 μL aliquoted to each well, and incubated overnight at 4° C. Cells was washed five times for 5 minutes with PBST. Secondary antibody (HRP-linked anti-rabbit IgG, CST-7074, Cell Signaling Technology) was diluted 1:1000 in blocking buffer, and 50 μL was added to each well and incubated 1-2 hrs at room temperature. Cells was washed […] for 5 minutes with PBST, 100 μL TMB ELISA substrate (abcam-ab171523) were added and gently shake for 20 minutes. 50 μL stop solution (abcam-ab 171529) were added, and then read the signal (OD450) by EnVision.
(§5) IC50 was determined by fitting a 4-parameter sigmoidal concentration response model.

[3] = test system: phosphorylation of ERK, KRAS G12D in AGS cells; experiment: pERK inhibition assay; format: cell-based; conditions: Homo sapiens, AGS, 4 h
Protocol: as §3, §4, §5

[4] = test system: phosphorylation of ERK, KRAS G12V in SW620; experiment: pERK inhibition assay; format: cell-based; conditions: Homo sapiens, SW-620, 4 h, SW620 cells
Protocol: as §3, §4, §5

KRAS G12C-BRAF complex, sequence (P01116-2 other isoform, or with tags, fused parts or gaps G12C): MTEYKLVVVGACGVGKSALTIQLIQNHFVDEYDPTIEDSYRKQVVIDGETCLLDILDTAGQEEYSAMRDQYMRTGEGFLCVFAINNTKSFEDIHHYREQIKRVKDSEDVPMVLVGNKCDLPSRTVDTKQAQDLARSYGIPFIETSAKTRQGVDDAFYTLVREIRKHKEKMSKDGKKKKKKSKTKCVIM
KRAS G12C-BRAF complex, sequence (P62937 whole entry): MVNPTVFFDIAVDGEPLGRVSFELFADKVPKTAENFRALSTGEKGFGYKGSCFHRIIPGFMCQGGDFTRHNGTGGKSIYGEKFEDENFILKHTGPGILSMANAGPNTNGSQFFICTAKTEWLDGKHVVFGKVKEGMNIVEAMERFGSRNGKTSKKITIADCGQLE

SMILES | IC50 (AGS cells (KRAS G12D)) [nM] | IC50 [1] [nM] | IC50 (SW620 cells (KRAS G12V)) [nM] | IC50 (KRAS G12C-BRAF complex) [nM] | IC50 [2] [nM] | IC50 [3] [nM] | IC50 [4] [nM]
CO[C@@H](C)c1ncc(N2CCOCC2)cc1-c1c2c3cc(cc4c3n1CCC4)-c1csc(n1)C[C@H](NC(=O)[C@H]1[C@@H]3COC[C@@H]31)C(=O)N1CCC[C@H](N1)C(=O)OCC(C)(C)C2 (atropisomer, axis not shown; (M)) [Example 7, (1S,5R,6r)-N-[(7S,13S)-(20M)-20-[2-[(1S)-1-methoxyethyl]-5-morpholino-3-pyridyl]-17,17-dimethyl-8,14-dioxo-15-oxa-4-thia-9,21,30,31-tetrazahexacyclo[23.3.1.1^2,5.1^9,13.0^19,27.0^21,26]hentriaconta-1 (28),2,5 (31), 19,25 (29),26-hexaen-7-yl]-3-oxabicyclo[3.1.0]hexane-6-carboxamide] | 13.1 | 2.4 | 0.8 | 9.4 | 1.6 | 7.9 | 1.2
CO[C@@H](C)c1ncc(N2CCN(CC(F)(F)F)CC2)cc1-c1c2c3cc(cc4c3n1CCC4)-c1csc(n1)C[C@H](NC(=O)[C@H]1C[C@@H]1C)C(=O)N1CCC[C@H](N1)C(=O)OCC(C)(C)C2 (atropisomer, axis not shown; (M)) [Example 3, (1S,2S)-N-[(7S,13S)-(20M)-20-[2-[(1S)-1-methoxyethyl]-5-[4-(2,2,2-trifluoroethyl)piperazin-1-yl]-3-pyridyl]-17,17-dimethyl-8,14-dioxo-15-oxa-4-thia-9,21,30,31-tetrazahexacyclo[23.3.1.1^2,5.1^9,13.0^19,27.0^21,26]hentriaconta-1 (28),2,5 (31), 19,25 (29),26-hexaen-7-yl]-2-methyl-cyclopropanecarboxamide] | – | – | – | 31.4 | 5.1 | 24.3 | 3.6
CO[C@@H](C)c1ncc(N2CCN(C)CC2)cc1-c1c2c3cc(cc4c3n1CCC4)-c1csc(n1)C[C@H](NC(=O)[C@H]1CC[C@](C)(O)CC1)C(=O)N1CCC[C@H](N1)C(=O)OCC(C)(C)C2 (atropisomer, axis not shown; (M)) [Example 71, trans-4-hydroxy-N-[(7S,13S)-(20M)-20-[2-[(1S)-1-methoxyethyl]-5-(4-methylpiperazin-1-yl)-3-pyridyl]-17,17-dimethyl-8,14-dioxo-15-oxa-4-thia-9,21,30,31-tetrazahexacyclo[23.3.1.1^2,5.1^9,13.0^19,27.0^21,26]hentriaconta-1 (28),2,5 (31), 19,25 (29),26-hexaen-7-yl]-4-methyl-cyclohexanecarboxamide] | – | – | – | 28.9 | 3.6 | 51.5 | 6.5
CO[C@@H](C)c1ncc(N2CCN(C)CC2)cc1-c1c2c3cc(cc4c3n1CCC4)-c1csc(n1)C[C@H](NC(=O)C1CCOCC1)C(=O)N1CCC[C@H](N1)C(=O)OCC(C)(C)C2 (atropisomer, axis not shown; (M)) [Example 77, N-[(7S,13S)-(20M)-20-[2-[(1S)-1-methoxyethyl]-5-(4-methylpiperazin-1-yl)-3-pyridyl]-17,17-dimethyl-8,14-dioxo-15-oxa-4-thia-9,21,30,31-tetrazahexacyclo[23.3.1.1^2,5.1^9,13.0^19,27.0^21,26]hentriaconta-1 (28),2,5 (31),19,25 (29),26-hexaen-7-yl]tetrahydropyran-4-carboxamide] | – | – | – | 41.8 | 4.4 | 26.1 | 4
CO[C@@H](C)c1ncc(N2CCOCC2)cc1-c1c2c3cc(cc4c3n1[C@@H](C)CO4)-c1csc(n1)C[C@H](NC(=O)[C@H]1C[C@@H]1C)C(=O)N1CCC[C@H](N1)C(=O)OCC(C)(C)C2 (atropisomer, axis not shown; (M)) [Example 53, (1S,2S)-N-[(7S,13S,22S)-(20M)-20-[2-[(1S)-1-methoxyethyl]-5-morpholino-3-pyridyl]-17,17,22-trimethyl-8,14-dioxo-15,24-dioxa-4-thia-9,21,30,31-tetrazahexacyclo[23.3.1.1^2,5.1^9,13.0^19,27.0^21,26]hentriaconta-1 (28),2,5 (31), 19,25 (29),26-hexaen-7-yl]-2-methyl-cyclopropanecarboxamide] | – | – | – | 65.7 | 21.2 | 176 | 24.5
CO[C@@H](C)c1ncc(N2CCN(C)CC2)cc1-c1c2c3cc(cc4c3n1CCC4)-c1csc(n1)C[C@H](NC(=O)C1CCC(F)(F)C1)C(=O)N1CCC[C@H](N1)C(=O)OCC(C)(C)C2 (stereo partly drawn) [Example 65, 3,3-difluoro-N-[(7S,13S)-(20M)-20-[2-[(1S)-1-methoxyethyl]-5-(4-methylpiperazin-1-yl)-3-pyridyl]-17,17-dimethyl-8,14-dioxo-15-oxa-4-thia-9,21,30,31-tetrazahexacyclo[23.3.1.1^2,5.1^9,13.0^19,27.0^21,26]hentriaconta-1 (28),2,5 (31), 19,25 (29),26-hexaen-7-yl]cyclopentanecarboxamide] | – | – | – | 51.3 | 2.3 | 31.7 | 5
CO[C@@H](C)c1ncc(N2CCN(C)CC2)cc1-c1c2c3cc(cc4c3n1CCC4)-c1csc(n1)C[C@H](NC(=O)C13C4CC1CC3C4)C(=O)N1CCC[C@H](N1)C(=O)OCC(C)(C)C2 (stereo partly drawn) [Example 72, N-[(7S,13S)-(20M)-20-[2-[(1S)-1-methoxyethyl]-5-(4-methylpiperazin-1-yl)-3-pyridyl]-17,17-dimethyl-8,14-dioxo-15-oxa-4-thia-9,21,30,31-tetrazahexacyclo[23.3.1.1^2,5.1^9,13.0^19,27.0^21,26]hentriaconta-1 (28),2,5 (31), 19,25 (29),26-hexaen-7-yl]tricyclo[3.1.1.0^3,6]heptane-6-carboxamide] | – | – | – | 31.5 | 2.3 | 41.5 | 4.8
CO[C@@H](C)c1ncc(N2CCN(C)CC2)cc1-c1c2c3cc(cc4c3n1CCC4)-c1csc(n1)C[C@H](NC(=O)C13CC(CO1)C3)C(=O)N1CCC[C@H](N1)C(=O)OCC(C)(C)C2 [Example 66, N-[(7S,13S)-(20M)-20-[2-[(1S)-1-methoxyethyl]-5-(4-methylpiperazin-1-yl)-3-pyridyl]-17,17-dimethyl-8,14-dioxo-15-oxa-4-thia-9,21,30,31-tetrazahexacyclo[23.3.1.1^2,5.1^9,13.0^19,27.0^21,26]hentriaconta-1 (28),2,5 (31), 19,25 (29),26-hexaen-7-yl]-2-oxabicyclo[2.1.1]hexane-1-carboxamide] | – | – | – | 50.5 | 2.6 | 40.2 | 3.3
